One test relates to B. subtilis (WT 3610). Put plainly: Combined effect of CL and surfactin on pellicle formation, NAO staining. The class given is cell-based, Bacillus subtilis. Conditions: high concentration (50 μM), about 20 h, FIG. 6. As for the experimental part: (§1) For visualization of bundle type biofilm a 1 ml sample was taken and washed twice with sterile water. Next Nonyl Acridine Orange (NAO) (Invitrogen A1372) was added to a final concentration of 100 nM for a 20 minutes incubation at room temperature. Next 3-7 μl from each sample were loaded on a microscopy glass slide. The samples were visualized using a fluorescent microscope in a transmitted light microscope using differential interference contrast (DIC) and 426-450 nm laser for CFP excitation (for visualization of YC189) or 457 nm-487 nm laser for GFP excitation (for visualization of NAO stained samples) (Nikon Eclipse Ti2).
B. subtilis (WT 3610) was grown for 5 h at 37° C., 150 rpm according to the conditions described above. Then 2 μl of bacteria were added to 1 ml LBG accompanied by solutions with different concentrations of CL and surfactin. After about 20 h the samples were stained with NAO (according to the protocol described herein), which was added to the unwashed samples. Finally, the samples were washed after the staining and the pellicle formation was tested.

Test [1] deals with Bacillus subtilis ΔclsA and ΔclsB mutants. Put plainly: Rescue of the biofilm phenotype of the cls mutants by added CL. Format: cell-based. Conditions: 10-fold serial dilutions of CL in the medium; data not shown. As for the experimental part:
Three kinds of biofilms were tested—colony type, pellicle and bundles. For colony type—bacteria were grown in LB medium for 5h and then 3-5 μl of the culture were spotted on an LB-GM (1% tryptone, 0.5% yeast extract, 0.5% NaCl, 1% glycerol, 0.1 mM MnSO4 and 2% agar) (Difco) or modified MRS (MMRS—MRS pH 7) (Man, Rogosa & Sharpe) (Hy-labs) plates. Once the spotted drops were soaked into the medium, the plates were incubated upside down at 30° C. for 72 h. For pellicle biofilm formation 24-well plates were used. Bacteria were grown in LB medium for 5 h and then the culture was diluted 1:1000 into MMRS. Next, plates were incubated at 30° C., 20 rpm for 48 h. For the experiments with supplementation of CL, 0-100 μM CL dissolved in chloroform was added (final concentration of chloroform was 0.2%). For bundle type biofilm, a starter culture was prepared using a single bacterial colony inoculated into 5 ml of LB medium overnight at 30° C., 150 rpm. Next, bacteria were diluted 1:100 into fresh MMRS at 37° C., 25 rpm and after 5-7 h a 1 ml sample was taken and washed twice with sterile water. For longer incubation times, a starter culture was prepared using a single bacterial colony inoculated into 3 ml of LB medium for 5 h at 37° C., 150 rpm. Next, bacteria were diluted 1:100 into fresh MMRS at 23° C., 25 rpm overnight. The samples were visualized by fluorescence microscopy. […]

In test [2] the test system is Bacillus subtilis NCIB 3610 pellicle biofilm. Description: Pellicle biofilm formation with CL added to the medium. Particulars: FIG. 5A. The class given is cell-based. As for the experimental part: Three kinds of biofilms were tested—colony type, pellicle and bundles. For colony type—bacteria were grown in LB medium for 5h and then 3-5 μl of the culture were spotted on an LB-GM (1% tryptone, 0.5% yeast extract, 0.5% NaCl, 1% glycerol, 0.1 mM MnSO4 and 2% agar) (Difco) or modified MRS (MMRS—MRS pH 7) (Man, Rogosa & Sharpe) (Hy-labs) plates. Once the spotted drops were soaked into the medium, the plates were incubated upside down at 30° C. for 72 h. For pellicle biofilm formation 24-well plates were used. Bacteria were grown in LB medium for 5 h and then the culture was diluted 1:1000 into MMRS. […] For the experiments with supplementation of CL, 0-100 μM CL dissolved in chloroform was added (final concentration of chloroform was 0.2%). For bundle type biofilm, a starter culture was prepared using a single bacterial colony inoculated into 5 ml of LB medium overnight at 30° C., 150 rpm. Next, bacteria were diluted 1:100 into fresh MMRS at 37° C., 25 rpm and after 5-7 h a 1 ml sample was taken and washed twice with sterile water. For longer incubation times, a starter culture was prepared using a single bacterial colony inoculated into 3 ml of LB medium for 5 h at 37° C., 150 rpm. Next, bacteria were diluted 1:100 into fresh MMRS at 23° C., 25 rpm overnight. The samples were visualized by fluorescence microscopy.

For test [3], the system named is Bacillus subtilis YC189 (PtapA-cfp) bundle biofilm. Put plainly: Bundle biofilm formation and tapA promoter (PtapA-cfp) activity with CL added, fluorescence microscopy. Format: cell-based. As for the experimental part: Three kinds of biofilms were tested—colony type, pellicle and bundles. For colony type—bacteria were grown in LB medium for 5h and then 3-5 μl of the culture were spotted on an LB-GM (1% tryptone, 0.5% yeast extract, 0.5% NaCl, 1% glycerol, 0.1 mM MnSO4 and 2% agar) (Difco) or modified MRS (MMRS—MRS pH 7) (Man, Rogosa & Sharpe) (Hy-labs) plates. Once the spotted drops were soaked into the medium, the plates were incubated upside down at 30° C. for 72 h. For pellicle biofilm formation 24-well plates were used. Bacteria were grown in LB medium for 5 h and then the culture was diluted 1:1000 into MMRS. Next, plates were incubated at 30° C., 20 rpm for 48 h. For the experiments with supplementation of CL, 0-100 μM CL dissolved in chloroform was added (final concentration of chloroform was 0.2%). For bundle type biofilm, a starter culture was prepared using a single bacterial colony inoculated into 5 ml of LB medium overnight at 30° C., 150 rpm. Next, bacteria were diluted 1:100 into fresh MMRS at 37° C., 25 rpm and after 5-7 h a 1 ml sample was taken and washed twice with sterile water. For longer incubation times, a starter culture was prepared using a single bacterial colony inoculated into 3 ml of LB medium for 5 h at 37° C., 150 rpm. Next, bacteria were diluted 1:100 into fresh MMRS at 23° C., 25 rpm overnight. The samples were visualized by fluorescence microscopy.
as §1

Test [4] concerns Bacillus subtilis wt. Conditions: wt strain with Mg2+ ions; previously shown; cited from earlier work.
The test system of test [5] is Bacillus subtilis wt. Conditions: wt strain with Mg2+ ions; previously shown; cited from earlier work. The source holds these as a separate data set.
Setting [6] is: CL 10 μM and 100 μM, after 12 h, YC189, FIG. 5B.

cardiolipin [CL]: the “string-like structures connecting the bacteria” value with B. subtilis (WT 3610) is “string-like structures connecting the bacteria have been observed”. Moreover, the “rescue of the mutants' biofilm phenotype” value in test [1] was “not able to rescue”. For the same molecule, the “biofilm formation (pellicle)” value in test [2] (CL 50 μM, 18 h post treatment) is listed as “reduced biofilm formation”. Besides, in test [2] (CL 5-50 μM, after 18 hours), the pellicle biofilm formation entry is “delay in pellicle biofilm formation”. The “biofilm (bundle) formation” value in test [3] (setting [6]) is reported as “biofilm is not formed”; in test [3] (high concentrations of CL, after 18 h, YC189, FIG. 5C), “bundles start to form”. For the same molecule, the “stimulation of the tapA operon (PtapA-cfp)” value in test [3] (setting [6]) is given as “not stimulated”. The biofilm formation entry in test [3] (CL 10 μM, after 18 h, YC189, FIG. 5C) is “substantially reduced”.
In the case of `[Mg+2]` [Mg^2+ ions], in the test on Bacillus subtilis wt [4], the “sensitivity to heat treatments” value is “more sensitive to heat treatments”. Further, the biofilm formation entry with Bacillus subtilis wt [5] is recorded as “biofilm is not formed”.

The values are drawn from patent publication US20220273005A1, “METHOD OF INDUCING BACTERIAL HEAT SENSITIVITY” (THE STATE OF ISRAEL, MINISTRY OF AGRICULTURE & RURAL …, priority 2019, published 2022).
